The results in this text go back to patent publication US8076331B2, “Substituted pyridazine derivatives” (Cephalon, Inc., priority 2008, dated 2011).

Usually Ki stands for a dissociation constant, usually derived from enzyme kinetics or from competition with a known ligand. As a reminder, the melting point is the temperature, or range, at which the solid turns liquid.

One series concerns the target T1, human H3 receptor (Homo sapiens, UniProt Q9Y5N1).
T1 construct: expressed in transfected cells
Description: Human H3 radioligand binding ([3H]-N-alpha-methylhistamine, CHO cell membranes). Particulars: membranes of CHO cells stably expressing the human H3 receptor; [3H]-N-alpha-methylhistamine approx. 1 nM. How it is done: Methods: CHO cells stably expressing the human H3 receptor (GenBank: NM_007232) were harvested and cell pellets were frozen (—80° C.). Cell pellets were resuspended in 5 mM Tris-HCl, pH 7.5 with […] and a cocktail of protease inhibitors (Complete Protease Inhibitior Tablets, Roche Diagnostics). Cells were disrupted using a polytron cell homogenizer and the suspension was centrifuged at 1000×g for 10 minutes at 4° C. The pellet was discarded and the supernatant centrifuged at 40,000×g for 30 min at 4° C. This membrane pellet was washed in membrane buffer containing 50 mM Tris-HCl, pH 7.5 with 0.6 mM EDTA, 5 mM MgCl2 and protease inhibitors, recentrifuged as above and the final pellet resuspended in membrane buffer plus 250 mM sucrose and frozen at −80° C.
Radioligand Binding. Membranes were resuspended in 50 mM Tris HCl (pH 7.4), 5 mM MgCl2, 0.1% BSA. The membrane suspensions (10 μg protein per well) were incubated in a 96 well microtiter plate with [^3H]-N-alpha-methylhistamine (approximately 1 nM final concentration), test compounds at various concentrations (0.01 nM-30 μM) and scintillation proximity beads (Perkin Elmer, FlashBlueGPCR Scintillating Beads) in a final volume of 80 μl for 4 hours at room temperature, protected from light. Non-specific binding was determined in the presence of 10 μM clobenpropit. Radioligand bound to receptor, and therefore in proximity to the scintillation beads, was measured using a MicroBeta scintillation counter.

T1 sequence (Q9Y5N1 whole entry): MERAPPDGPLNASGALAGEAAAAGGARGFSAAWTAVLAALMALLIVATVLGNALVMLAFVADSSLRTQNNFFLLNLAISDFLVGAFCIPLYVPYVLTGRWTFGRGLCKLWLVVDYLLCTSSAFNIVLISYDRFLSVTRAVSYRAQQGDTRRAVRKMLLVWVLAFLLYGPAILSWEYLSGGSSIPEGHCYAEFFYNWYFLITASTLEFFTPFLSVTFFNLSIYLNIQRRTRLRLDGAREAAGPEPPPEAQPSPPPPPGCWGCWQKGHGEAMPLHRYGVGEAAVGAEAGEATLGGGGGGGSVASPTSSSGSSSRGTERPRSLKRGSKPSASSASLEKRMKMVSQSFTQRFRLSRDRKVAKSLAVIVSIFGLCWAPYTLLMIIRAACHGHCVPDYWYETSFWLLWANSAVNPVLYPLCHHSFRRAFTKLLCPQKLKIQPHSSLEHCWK

On to `C[C@@H]1CCCN1CCCOc1ccc(-c2ccc(-c3cc4ccccc4o3)nn2)cc1` [Example 41, 3-Benzofuran-2-yl-6-{4-[3-((R)-2-methyl-pyrrolidin-1-yl)-propoxy]-phenyl}pyridazine], for which the melting point amounted to 180 °C. Besides, the Ki at human H3 receptor was under 50 nM.
On the same counts, the results for `CSc1ccc(-c2ccc(OCCCN3CCCCC3)cc2)nn1` [Example 31, 3-Methylsulfanyl-6-[4-(3-piperidin-1-yl-propoxy)phenyl]pyridazine] are 122 °C and 51 to 100 nM.
As to `C[C@@H]1CCCN1CCCOc1ccc(-c2ccc(OCc3ccc(C(F)(F)F)cc3)nn2)cc1` [Example 27, 3-{4-[3-((R)-2-Methyl-pyrrolidin-1-yl)-propoxy]-phenyl}-6-(4-trifluoromethyl-benzyloxy)pyridazine], the melting point was determined as 160 °C. On human H3 receptor, the Ki was under 50 nM.
On the same counts, the results for `c1ccc(Oc2ccc(-c3ccc(OCCCN4CCCCC4)cc3)nn2)cc1` [Example 25, 3-Phenoxy-6-[4-(3-piperidin-1-yl-propoxy)phenyl]pyridazine] are 139 °C and under 50 nM.
As to `CC1CCCCN1C[C@H](C)COc1ccc(-c2ccc(Cl)nn2)cc1` (stereo partly drawn) [Example 44, 3-Chloro-6-{4-[(S)-2-methyl-3-(2-methylpiperidin-1-yl)propoxy]-phenyl}pyridazine], the melting point was 108 to 110 °C. On human H3 receptor, the Ki is over 101 nM.
On the same counts, the results for `C[C@@H]1CCCN1CCCOc1ccc(-c2ccc(OCc3ccccc3)nn2)cc1` [Example 21, 3-Benzyloxy-6-{4-[3-((R)-2-methyl-pyrrolidin-1-yl)-propoxy]phenyl}pyridazine] are 114 °C and under 50 nM.
`COc1ccc(-c2ccc(OCCCN3CCCCC3)cc2)nn1` [Example 23] gave a melting point of 116 °C. For the same compound, at human H3 receptor, the Ki is under 50 nM.
`C[C@@H]1CCCN1CCCOc1ccc(-c2nnc(Cl)c3c2C2CCC3CC2)cc1` [Example 18, 3-Chloro-6-{4-[3-((R)-2-methyl-pyrrolidin-1-yl)-propoxy]-phenyl}-4,5-diaza-tricyclo[6.2.2.0*2,7*]dodeca-2(7),3,5-triene] had a melting point of 132 to 134 °C. At human H3 receptor, this compound displayed a Ki of under 50 nM.
On the same counts, the results for `C[C@@H]1CCCN1CCCOc1ccc(-c2ccc(Oc3cncc(Cl)c3)nn2)cc1` [Example 19] are 119 °C and under 50 nM.
On the same counts, the results for `C[C@@H]1CCCN1CCCOc1ccc(-c2ccc(Cl)nn2)cc1C#N` [Example 13, 5-(6-Chloro-pyridazin-3-yl)-2-[3-((R)-2-methyl-pyrrolidin-1-yl)-propoxy]benzonitrile] are 134 to 136 °C and under 50 nM.
Turning to `C[C@@H]1CCCN1CCCOc1ccc(-c2nnc(Cl)c3c2CCC3)cc1` [Example 17, 1-Chloro-4-{4-[3-((R)-2-metyl-pyrrolidin-1-yl)-propoxy]-phenyl}-6,7-dihydro-5H-cyclopenta[d]pyridazine], the melting point came out at 65 °C. For the same compound, the inhibition constant (Ki) on human H3 receptor was under 50 nM.
